These results are taken from ChEMBL document CHEMBL1649214, “Antimalarial activity of tigecycline, a novel glycylcycline antibiotic” (Antimicrob Agents Chemother, 2009).

Usually pIC50 stands for the negative decadic logarithm of the IC50, by convention in mol/L. As a reminder, the IC90 is the concentration at which the effect reaches the 90% level. For orientation: IC99 means the concentration at which the effect reaches the 99% level.

pIC50: −log10 of the molar value.

Assay [1] relates to Plasmodium falciparum. Kind of assay: Antimalarial activity against Plasmodium falciparum isolates assessed as parasite growth inhibition after 72 hrs by ELISA based histidine-rich protein 2 in vitro drug susceptibility assay. The class given is functional, organism-based.
For assay [2], the system named is Plasmodium falciparum. Briefly: Ratio of IC50 for Plasmodium falciparum isolates after 72 hrs to IC50 for Plasmodium falciparum isolates after 24 hrs by ELISA based histidine-rich protein 2 in vitro drug susceptibility assay. Format: functional. In general terms: ELISA stands for enzyme-linked immunosorbent assay.

`C[C@H]1[C@@H](O)O[C@@H]2O[C@@]3(C)CC[C@H]4[C@H](C)CC[C@@H]1[C@@]24OO3` [ARTENIMOL]: in the assay with Plasmodium falciparum [1], the pIC50 is 9.11, the IC90 was determined as 2.76 nM and the IC99 is 0.004 µM.

`CC[C@H]1OC(=O)[C@H](C)[C@@H](O[C@H]2C[C@@](C)(OC)[C@@H](O)[C@H](C)O2)[C@H](C)[C@@H](O[C@@H]2O[C@H](C)C[C@H](N(C)C)[C@H]2O)[C@](C)(O)C[C@@H](C)CN(C)[C@H](C)[C@@H](O)[C@]1(C)O` [AZITHROMYCIN]: in the assay on Plasmodium falciparum [1], the pIC50 is 5.37, the IC90 turned out to be 18400 nM and the IC99 was determined as 26.7 µM.

As to `CCN(CC)CCCC(C)Nc1ccnc2cc(Cl)ccc12` (configuration not stated) [CHLOROQUINE], in the assay with Plasmodium falciparum [1], the IC90 was 303 nM and the IC99 is 0.436 µM.

In the case of `C[C@H]1c2cccc(O)c2C(=O)C2=C(O)[C@]3(O)C(=O)C(C(N)=O)=C(O)[C@@H](N(C)C)[C@@H]3[C@@H](O)[C@@H]21.O` [DOXYCYCLINE], in the assay with Plasmodium falciparum [1], the pIC50 was 5.37, the IC90 came to 19400 nM and the IC99 is 27.2 µM. In the assay with Plasmodium falciparum [2], the “Ratio IC50” value was 13.

For `OC(c1cc(C(F)(F)F)nc2c(C(F)(F)F)cccc12)C1CCCCN1` (configuration not stated) [MEFLOQUINE], in the assay with Plasmodium falciparum [1], the pIC50 was 7.84, the IC90 worked out at 64 nM and the IC99 was determined as 0.106 µM.

With `C=C[C@H]1CN2CC[C@H]1C[C@H]2[C@H](O)c1ccnc2ccc(OC)cc12` [QUININE], in the assay with Plasmodium falciparum [1], the pIC50 was 6.98, the IC90 came to 441 nM and the IC99 is 0.673 µM.

With `CN(C)c1cc(NC(=O)CNC(C)(C)C)c(O)c2c1C[C@H]1C[C@H]3[C@H](N(C)C)C(O)=C(C(N)=O)C(=O)[C@@]3(O)C(O)=C1C2=O` [TIGECYCLINE], in the assay on Plasmodium falciparum [1], the pIC50 was 6.16, the IC90 came out at 5910 nM and the IC99 worked out at 12.4 µM. In the assay with Plasmodium falciparum [2], the “Ratio IC50” value came out at 49.
